# Results from US9375496B2, “Halogenated compounds for cancer imaging and treatment and methods for their use” (The University of British Columbia, priority 2013, dated 2016).
# Columns and labels:
# recombinant LBD of AR = target: T1, recombinant LBD of AR (Homo sapiens, UniProt P10275); test: Competitive ligand-binding assay (fluorescent polarization), recombinant AR LBD; conditions: 1 nM fluorescently labeled ligand, 5 h incubation, serial dilution
# T1 sequence (P10275 669-900 limits assumed): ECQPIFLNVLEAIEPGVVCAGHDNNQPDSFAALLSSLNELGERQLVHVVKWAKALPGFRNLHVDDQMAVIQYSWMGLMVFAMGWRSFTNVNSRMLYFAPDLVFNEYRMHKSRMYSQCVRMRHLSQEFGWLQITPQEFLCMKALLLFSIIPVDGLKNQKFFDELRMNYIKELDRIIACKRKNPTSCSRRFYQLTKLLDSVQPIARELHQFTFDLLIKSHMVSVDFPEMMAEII
# Procedure: (§1) Competitive ligand-binding assays to detect the displacement of fluorescently labeled ligand from recombinant LBDs (ligand binding domains) of AR, PR, GR and estrogen receptor (ER) by R1881, MDV3100, Z (also referred to as EPI-002 or EPI) or 8d (also referred to as iodinated EPI) were performed. FIGS. 14A-14E display competitive ligand-binding curves to indicate whether R1881, Z, antiandrogens (enzalutamide, hydroxyflutamide, bicalutamide) or 8d can displace 1 nM fluorescently labeled cognant ligand from recombinant LBDs of steroid hormone receptors by using fluorescent polarization (mP). Serial dilution was performed for each test compound. Mixtures were incubated for 5 h before measurement of fluorescent polarization.
# [1] = target: T2, progesterone receptor-beta (PRβ) (Homo sapiens, UniProt P06401); test: PRE-luciferase reporter assay in LNCaP cells cotransfected with full-length human PRβ; type: cell-based; conditions: 1.9 μM 8d, 10 nM progesterone, 24 h, LNCaP cells (FIG. 2B)
# T2 construct: expression plasmids for full-length human PRβ; expressed in transfected cells; host or cells: LNCaP
# T2 sequence (P06401 1-933): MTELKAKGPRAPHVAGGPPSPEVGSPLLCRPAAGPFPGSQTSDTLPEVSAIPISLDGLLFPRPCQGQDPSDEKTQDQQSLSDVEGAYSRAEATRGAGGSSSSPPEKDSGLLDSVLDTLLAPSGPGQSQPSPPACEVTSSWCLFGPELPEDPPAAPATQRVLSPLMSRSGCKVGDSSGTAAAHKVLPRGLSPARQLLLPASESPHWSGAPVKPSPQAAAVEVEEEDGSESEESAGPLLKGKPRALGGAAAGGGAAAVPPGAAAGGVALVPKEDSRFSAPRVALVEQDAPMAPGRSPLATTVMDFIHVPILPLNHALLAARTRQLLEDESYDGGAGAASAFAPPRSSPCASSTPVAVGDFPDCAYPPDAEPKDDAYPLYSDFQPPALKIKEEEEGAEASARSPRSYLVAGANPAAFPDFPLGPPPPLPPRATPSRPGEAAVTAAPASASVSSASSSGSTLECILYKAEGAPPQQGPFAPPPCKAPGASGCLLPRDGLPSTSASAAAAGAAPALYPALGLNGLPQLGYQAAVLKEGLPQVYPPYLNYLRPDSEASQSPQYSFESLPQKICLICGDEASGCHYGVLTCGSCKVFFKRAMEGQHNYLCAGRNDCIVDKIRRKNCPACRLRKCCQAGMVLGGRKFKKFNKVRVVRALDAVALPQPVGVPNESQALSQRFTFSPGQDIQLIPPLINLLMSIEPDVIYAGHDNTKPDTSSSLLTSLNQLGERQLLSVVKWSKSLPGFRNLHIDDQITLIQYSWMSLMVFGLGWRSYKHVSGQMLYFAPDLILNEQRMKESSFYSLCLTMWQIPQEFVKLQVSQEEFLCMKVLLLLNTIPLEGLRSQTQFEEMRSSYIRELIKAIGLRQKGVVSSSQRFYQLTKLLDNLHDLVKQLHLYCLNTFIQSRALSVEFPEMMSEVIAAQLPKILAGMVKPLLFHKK
# Procedure: To assess specificity for the AR, parallel experiments were performed in LNCaP cells with endogenous AR and ectopic expression of other closely related human hormone receptors such as the progesterone receptor-beta (PRβ), glucocorticoid receptor (GR) and estrogen receptor-α (ER).
# LNCaP cells were cotransfected with the expression plasmids for full-length human PRβ and the relative reporter (PRE-luciferase) for 24 h, and then treated with DMSO, 5 μM MDV3100, 25 μM Z, or 1.9 μM 8d with or without 10 nM progesterone for 24 h (FIG. 2B). Compound 8d had no effect on the transcriptional activity of closely related PRβ.
# [2] = target: T3, recombinant LBD of estrogen receptor (ER) (Homo sapiens, UniProt P03372); test: Competitive ligand-binding assay (fluorescent polarization), recombinant ER LBD; conditions: 1 nM fluorescently labeled ligand, 5 h incubation, serial dilution
# T3 sequence (P03372 311-547 limits assumed): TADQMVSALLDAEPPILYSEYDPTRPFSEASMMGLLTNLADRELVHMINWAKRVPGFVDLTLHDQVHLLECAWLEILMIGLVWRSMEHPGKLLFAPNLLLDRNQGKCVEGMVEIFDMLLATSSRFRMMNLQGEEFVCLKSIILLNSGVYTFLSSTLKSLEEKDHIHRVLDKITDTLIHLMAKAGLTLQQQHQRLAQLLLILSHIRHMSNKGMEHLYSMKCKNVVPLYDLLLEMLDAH
# Procedure: as §1
# DU145 cells = test: DU145 cell viability, alamarBlue Cell Viability Assay; type: cell-based; conditions: day 3, at concentrations that reduced LNCaP proliferation
# Text: (§2) Effects of 8d (also referred to as I-EPI-002) on androgen-dependent proliferation of LNCaP cells treated with R1881 were compared with PC3 and DU145 cell viability by alamarBlue Cell Viability Assay (FIG. 16).
# LNCaP cells = test: Androgen-dependent proliferation of LNCaP cells, alamarBlue Cell Viability Assay; type: cell-based; conditions: LNCaP treated with R1881, day 4, alamarBlue
# Text: as §2
compound,measurement,setting,value
"CC(C)(c1ccc(OC[C@H](O)CO)cc1)c1ccc(OC[C@H](O)CCl)c(I)c1 [Compound 8d, (R)-3-(4-(2-(4-((S)-3-chloro-2-hydroxypropoxy)-3-iodophenyl)propan-2-yl)phenoxy)propane-1,2-diol]",binding to LBD of AR (displacement of fluorescently labeled ligand),recombinant LBD of AR,does not bind
same,transcriptional activity of PRβ (PRE-luciferase),[1],no effect
same,binding to LBD of ER (displacement of fluorescently labeled ligand),[2],does not bind
same,viability of DU145 cells,DU145 cells,no effect
same,AR-dependent proliferation of LNCaP cells,LNCaP cells,reduced
